Laboratory results taken from article PMC5812297, “Specificity and Application of the Lantibiotic Protease NisP” (Frontiers in Microbiology, 2018).
Ends that are not written are not given here.

B1: cell wall attached NisP: full length NisP expressed in E. coli (van der Meer et al., 1993) (protein, UniProt Q07596 1-682, looked up)
chain: MKKILGFLFIVCSLGLSATVHGETTNSQQLLSNNINTELINHNSNAILSSTEGSTTDSINLGAQSPAVKSTTRTELDVTGAAKTLLQTSAVQKEMKVSLQETQVSSEFSKRDSVTNKEAVPVSKDELLEQSEVVVSTSSIQKNKILDNKKKRANFVTSSPLIKEKPSNSKDASGVIDNSASPLSYRKAKEVVSLRQPLKNQKVEAQPLLISNSSEKKASVYTNSHDFWDYQWDMKYVTNNGESYALYQPSKKISVGIIDSGIMEEHPDLSNSLGNYFKNLVPKGGFDNEEPDETGNPSDIVDKMGHGTEVAGQITANGNILGVAPGITVNIYRVFGENLSKSEWVARAIRRAADDGNKVINISAGQYLMISGSYDDGTNDYQEYLNYKSAINYATAKGSIVVAALGNDSLNIQDNQTMINFLKRFRSIKVPGKVVDAPSVFEDVIAVGGIDGYGNISDFSNIGADAIYAPAGTTANFKKYGQDKFVSQGYYLKDWLFTTANTGWYQYVYGNSFATPKVSGALALVVDKYGIKNPNQLKRFLLMNSPEVNGNRVLNIVDLLNGKNKAFSLDTDKGQDDAINHKSMENLKESRDTMKQEQDKEIQRNTNNNFSIKNDFHNISKEVISVDYNINQKMANNRNSRGAVSVRSQEILPVTGDGEDFLPALGIVCISILGILKRKTKN
modifications: full-length

Legend:
engineered soluble NisP = experiment: Enzyme kinetic assay of NisP cleavage of prenisin variants (Lineweaver–Burk, RP-HPLC); assay type: biochemical, Lactococcus lactis; conditions: for Kcat/Km in comparison, in words: among the four prenisin variants, or vs literature
Procedure: In order to investigate the substrate specificity and kinetic parameters of NisP, a set of mutants of P4-P1 was created. We used wild-type prenisin (ASPR), nis-Peng (VSLR), nis-Thrombin (AVPR), and nis-Factor Xa (IEGR) as substrates. The concentration of NisP was determined by the BCA assay with bovine serum albumin as standard. The conditions of cleavage reaction were optimized with 100 mM Tris buffer containing 5 mM CaCl2 (pH 6.0). The reaction was stopped at the indicated times adding TFA to a final concentration of 1%. The reaction was performed in 100 μl with 6.5 ng/ml NisP at 37°C. 1% TFA was added to terminate the reaction at 5 different time points (5, 15, 30, 45, and 60 min). All the samples were analyzed by analytical RP-HPLC as indicated before (Mu et al., [2015]) and measuring the absorbance at 205 nm. For each substrate concentration, the initial velocity was calculated on the basis of the peak area of released nisin vs. time. The kinetic parameters were determined by fitting the calculated enzyme activities at different substrate concentrations (ranging from 1 to 25 μM) to a linear regression curve on Lineweaver–Burk double reciprocal plot (Lineweaver and Burk, [1934]).

[1] = system: L. lactis NZ9000 (pNZnisP-8H); experiment: Antimicrobial activity of purified prelantibiotics against NisP producing sensor strain; assay type: cell-based, Lactococcus lactis; conditions: no NisP, data not shown
Procedure: Activity tests were performed by well-diffusion assay as indicated by van Heel et al. ([2013]). L. lactis NZ9000 transformed with the appropriate plasmids or Micrococcus flavus were used as sensor strains as specified in each figure. The cleavage of nisin by NisP after SDS-PAGE was monitored washing the gel according to Bhunia et al. ([1987]) and covering with an overlay of GM17 soft agar inoculated with NZ9000 (pIL3BTC pNZnisA-E3) induced with 1 ng/ml nisin. The overlay was incubated for 16 h, after which the presence of inhibition zones was evaluated.
The substrate tolerance of soluble NisP was tested using a set of different lantibiotics. These were produced using the nisin modification machinery encoded in NZ9000 (pIL3BTC pNZE3-mutant) and purified by cationic exchange chromatography. For this purpose, NZ9000 (pNZ-nisP-8H) was used as a sensor strain and tested using gallidermin (van Heel et al., [2013]) and two lantibiotics detected in the genome of Streptococcus pneumoniae, PneA1 and PneA2 encoded in the genes spr1765 and spr1766, respectively, which were heterologously expressed in L. lactis fused to the nisin leader peptide (Majchrzykiewicz et al., [2010]) (Figure 5). […] The activity was restored when a strain producing soluble NisP was employed.
Figure 5 Antimicrobial activity of purified modified lantibiotics gallidermin, 1215 and 1268 against L. lactis NZ9000 (pNZnisP-8H). […]

NisP = experiment: Cleavage of nisin mutants by NisP in crude supernatants or purified peptide, masses by MALDI-TOF; assay type: biochemical, Lactococcus lactis; conditions: His-tagged purified NisP, overnight 37°C, ratio 1000:1, culture pH (4.5–5.0) or pH 6.0, MALDI-TOF
Procedure: Alternatively, supernatants containing nisin mutant peptides produced after induction were divided into two fractions; one in which the pH was adjusted to 6.0 and the other one where the pH was the actual fermentation pH. They were incubated overnight at 37°C with or without His-tagged purified NisP at a ratio of 1000:1. After the incubation, the supernatants were precipitated using TCA and resuspended in 1/20 volume 0.05% acetic acid. For the mutants that were produced in lower amounts, larger volumes were induced and the peptides were purified by cationic exchange chromatography as described before and separated by reverse phase chromatography using a Jupiter 4 μm Proteo 90 Å 250 × 4.6 mm C12 analytical column (Phenomenex). The column was equilibrated in 20% organic solvent (acetonitrile 0.1% TFA) before the sample injection. It was washed for 5 min before applying a linear gradient from 20 to 50% organic solvent in 20 min. 1 μl of each collected peak was used for mass-spectrometry determination.
Mass spectrometry analysis of the samples was performed by matrix-assisted laser desorption/ionization (MALDI) time-of-flight (ToF) in an ABI Voyager DE Pro (Applied Biosystems) operating in linear mode as previously described using external calibration (van Heel et al., [2013]). Briefly, 1 μl sample was spotted, dried and washed with 5 μL Milli-Q water, on the target. Next, 1 μl of α-cyano-4-hydroxycinnamic acid 5 mg/ml (Sigma-Aldrich) was spotted on the sample.
We designed a set of nisin mutants to investigate the specificity of NisP (Figure 4). For all these mutants, supernatants were collected after induction and divided into three fractions. NisP was added to two of these fractions, one maintaining the pH of the culture (4.5–5.0) and the other fraction was adjusted to pH 6.0. The third fraction was used as an untreated control. After cleavage, the masses of the peptides were monitored by MALDI-TOF (Table 2).

sensor bacteria = conditions: only antimicrobial activity as evidence, ref Kuipers et al., [1995]; cited from earlier work
Text: It was anticipated that the binding of dehydrobutyrine in position P2′ was less important than the interaction of Ile in position P1′ with a hydrophobic groove in NisP (Siezen et al., [1995]). Some mutants like I1W were previously shown to be cut by NisP using only the antimicrobial activity as evidence (Kuipers et al., [1995]). […] We could observe that an ...

prenisin = conditions: cell extracts of induced E. coli, ref van der Meer et al., [1993]; cited from earlier work
Text: During the production of nisin, the protease NisP is exported and anchored to the cell wall in a sortase-mediated manner. In previous attempts to characterize the specificity of NisP, the in vivo cleavage was based on the detection of the antimicrobial activity and the detection of mature lantibiotic compared to that of the prelantibiotic (van der Meer et al., [1994]). The activity in vitro could be confirmed using membrane preparations of cells expressing NisP bound to the cell wall, which limited the assays. Therefore, we engineered a soluble NisP variant that could facilitate this task. Our ...

[2] = 100 mM Tris 5 mM CaCl2 pH 6.0, 37°C, 6.5 ng/ml NisP, substrate 1 to 25 μM, Lineweaver–Burk, mean value ± standard deviation

| Molecule | Kcat/Km (catalytic efficiency) (engineered soluble NisP; 100 mM Tris 5 mM CaCl2 pH 6.0, 37°C, 6.5 ng/ml NisP) | Km (engineered soluble NisP; 100 mM Tris 5 mM CaCl2 pH 6.0, 37°C, 6.5 ng/ml NisP, substrate 1 to 25 μM, 5-60 min, RP-HPLC 205 nm, Lineweaver–Burk, mean value ± standard deviation) | Kcat (engineered soluble NisP; [2]) | Vmax (engineered soluble NisP; [2]) | Kcat/Km in comparison, in words (engineered soluble NisP; listed as wild-type nisin) | Kcat/Km in comparison, in words (engineered soluble NisP; listed as wild-type prenisin (ASPR)) | Antimicrobial activity in the absence of NisP [1] | Cleavage by NisP (NisP) | Cleavage by NisP (earlier work) (sensor bacteria) | Activation of prenisin (prenisin) |
| --- | --- | --- | --- | --- | --- | --- | --- | --- | --- | --- |
| WT Prenisin (ASPR): fully modified nisin with its leader peptide (ASPR cleavage site); inactive until leader is removed (MSTKDFNLDLVSVSKKDSGASPRITSISLCTPGCKTGALMGCNMKTATCHCSIHVSK; not fully specified (bridges); cysteine pairing not given here; also: fully modified nisin, modifications not placed; UniProt P13068 1-57, looked up) | 1.71e+06 M⁻¹ s⁻¹ | 0.73 ± 0.08 µM | 1.25 ± 0.07 s⁻¹ | 1.79 ± 0.10 µmol/mg/min | in line with previous results in literature | highest catalytic efficiency | none of the prelantibiotics tested, not even prenisin, was active | fully cleaved | – | – |
| nisin I1W: Nisin I1W mutant (MSTKDFNLDLVSVSKKDSGASPRWTSISLCTPGCKTGALMGCNMKTATCHCSIHVSK; ends and bridges not checked; cysteine pairing not given here; UniProt P13068 1-57, looked up, variant I1W) | – | – | – | – | – | – | – | fully processed | cut by NisP | – |
| B1 | – | – | – | – | – | – | – | – | – | could activate prenisin |
